Columns and labels:
[1] = biological target: T1, human cathepsin F (Homo sapiens, UniProt Q9UBX1); assay: Cathepsin F assay (hCat F); type: biochemical; settings: Z-Phe-Arg-AMC substrate, pH 5.5, 15 min preincubation; read-out: hCat F (IP (nM))
T1 sequence (Q9UBX1 271-484): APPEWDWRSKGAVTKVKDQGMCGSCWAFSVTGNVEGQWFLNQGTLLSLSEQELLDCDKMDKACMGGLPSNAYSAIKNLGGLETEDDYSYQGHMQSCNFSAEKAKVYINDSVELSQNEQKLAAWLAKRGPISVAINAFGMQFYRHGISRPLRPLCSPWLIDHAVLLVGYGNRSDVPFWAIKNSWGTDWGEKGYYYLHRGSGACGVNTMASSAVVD
Summary of the method: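 AMC release from Z-Phe-Arg-AMC, added at 8 μM, was monitored fluorometrically (360/460 nm) for 20 min after 10 nM enzyme and compound had been preincubated 15 min at room temperature. Buffer: MES 50 mM pH 5.5, EDTA and DTT 2.5 mM each, 10% DMSO. Compound DMSO dilutions spanned 500–0.025 μM (3-fold). Dose-response fitting gave % inhibition.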

[2] = biological target: human cathepsin K (UniProt P43236); assay: Cathepsin K Assay (hrbCat K); type: biochemical; settings: Z-Leu-Arg-AMC substrate, pH 5.5, 15 min preincubation; read-out: hrbCat K (IP (nM))
Summary of the method: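 Human cathepsin K (0.4 nM) was preincubated 15 min at room temperature with compound in 50 mM MES pH 5.5, 2.5 mM EDTA, 2.5 mM DTT and 10% DMSO. Inhibition was fitted to a dose-response model.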

Row | SMILES | IC50 [1] | IC50 [2]
1 | N#Cc1cccc(-c2nc([C@@H]3CCCC[C@H]3C(=O)NC3(C#N)CC3)c(-c3ccc(N4CCS(=O)(=O)CC4)cc3)s2)c1 [Example 66, (1R,2R)-N-(1-cyanocyclopropyl)-2-(2-(3-cyanophenyl)-5-(4-(1,1-dioxidothiomorpho-lino)phenyl)thiazol-4-yl)cyclohexane-carboxamide] | 1410 nM | 2 nM
2 | Cc1ccc(-c2nc([C@@H]3CCCC[C@H]3C(=O)NC3(C#N)CC3)c(-c3ccc(N4CCS(=O)(=O)CC4)cc3)s2)c(C#N)c1 [Example 67, (1R,2R)-2-(2-(2-cyano-4-methylphenyl)-5-(4-(1,1-dioxidothiomorpho-lino)phenyl)thiazol-4-yl)-N-(1-cyanocyclopropyl) cyclohexanecarbox-amide] | ≥ 10000 nM | 5.8 nM
3 | N#CC1(NC(=O)[C@@H]2C[C@@H](F)CC[C@H]2c2nc(-c3cncc(Cl)c3)sc2-c2ccc(N3CCS(=O)(=O)CC3)cc2)CC1 [Example 68, (1R,2R,5S)-2-(2-(5-chloropyridin-3-yl)-5-(4-(1,1-dioxidothiomorpho-lino)phenyl)thiazol-4-yl)-N-(1-cyanocyclopropyl)-5-fluorocyclohexane-carboxamide] | 2310 nM | 1.7 nM
4 | N#CC1(NC(=O)[C@@H]2C[C@@H](F)CC[C@H]2c2nc(-c3ccc(F)cn3)sc2-c2ccc(N3CCS(=O)(=O)CC3)cc2)CC1 [Example 69, (1R,2R,5S)-N-(1-cyanocyclopropyl)-2-(5-(4-(1,1-dioxidothiomorpho-lino)phenyl)-2-(5-fluoropyridin-2-yl)thiazol-4-yl)-5-fluorocyclohexane-carboxamide] | 2600 nM | 1.2 nM
5 | N#CC1(NC(=O)[C@@H]2CCCC[C@H]2c2nc(-c3ncccn3)sc2-c2ccc(N3CCS(=O)(=O)CC3)cc2)CC1 [Example 70, (1R,2R)-N-(1-cyanocyclopropyl)-2-(5-(4-(1,1-dioxidothiomorpho-lino)phenyl)-2-(pyrimidin-2-yl)thiazol-4-yl)cyclohexane-carboxamide] | ≥ 10000 nM | 27.1 nM
6 | CS(=O)(=O)C1CN(c2ccc(-c3sc(-c4cccnc4)nc3[C@@H]3CCCC[C@H]3C(=O)NC3(C#N)CC3)cc2)C1 [Example 73, (1R,2R)-N-(1-cyanocyclopropyl)-2-(5-(4-(3-(methylsulfonyl)azetidin-1-yl)phenyl)-2-(pyridin-3-yl)thiazol-4-yl)cyclohexane-carboxamide] | 1200 nM | 2.2 nM
7 | N#CC1(NC(=O)[C@@H]2CCC(F)(F)C[C@H]2c2nc(-c3ccc(F)cc3)sc2-c2ccc(N3CCS(=O)(=O)CC3)cc2)CC1 [Example 78, (1R,2R)-N-(1-cyanocyclopropyl)-2-(5-(4-(1,1-dioxidothiomorpho-lino)phenyl)-2-(4-fluorophenyl)thiazol-4-yl)-4,4-difluorocyclohexane-carboxamide] | 3330 nM | 3.8 nM
8 | N#Cc1ccccc1-c1nc([C@@H]2CCCC[C@H]2C(=O)NC2(C#N)CC2)c(-c2ccc(N3CCS(=O)(=O)CC3)cc2)s1 [Example 79, (1R,2R)-N-(1-cyanocyclopropyl)-2-(2-(2-cyanophenyl)-5-(4-(1,1-dioxidothiomorpho-lino)phenyl)thiazol-4-yl)cyclohexane-carboxamide] | 5750 nM | 9.3 nM
9 | COc1cnc(-c2nc([C@@H]3CCCC[C@H]3C(=O)NC3(C#N)CC3)c(-c3ccc(N4CCS(=O)(=O)CC4)cc3)s2)nc1 [Example 81, (1R,2R)-N-(1-cyanocyclopropyl)-2-(5-(4-(1,1-dioxidothiomorpho-lino)phenyl)-2-(5-methoxypyrimidin-2-yl)thiazol-4-yl)cyclohexane-carboxamide] | ≥ 10000 nM | 48.4 nM
10 | Cc1cnc(-c2nc([C@@H]3CCCC[C@H]3C(=O)NC3(C#N)CC3)c(-c3ccc(N4CCS(=O)(=O)CC4)cc3)s2)nc1 [Example 82, (1R,2R)-N-(1-cyanocyclopropyl)-2-(5-(4-(1,1-dioxidothiomorpho-lino)phenyl)-2-(5-methylpyrimidin-2-yl)thiazol-4-yl)cyclohexane-carboxamide] | ≥ 10000 nM | 46.4 nM
11 | Cc1ccc(-c2nc([C@@H]3CCCC[C@H]3C(=O)NC3(C#N)CC3)c(-c3ccc(N4CCS(=O)(=O)CC4)cc3)s2)nn1 [Example 83, (1R,2R)-N-(1-cyanocyclopropyl)-2-(5-(4-(1,1-dioxidothiomorpho-lino)phenyl)-2-(6-methylpyridazin-3-yl)thiazol-4-yl)cyclohexane-carboxamide] | 1110 nM | 1.4 nM
12 | N#Cc1ccc(-c2nc([C@@H]3CCCC[C@H]3C(=O)NC3(C#N)CC3)c(-c3ccc(N4CCS(=O)(=O)CC4)cc3)s2)cc1 [Example 84, (1R,2R)-N-(1-cyanocyclopropyl)-2-(2-(4-cyanophenyl)-5-(4-(1,1-dioxidothiomorpho-lino)phenyl)thiazol-4-yl)cyclohexane-carboxamide] | 1410 nM | 0.7 nM

Now from value to molecule:

Row | IC50 [1] | IC50 [2] | SMILES
13 | 1330 nM | 1.4 nM | N#CC1(NC(=O)[C@@H]2CCCC[C@H]2c2nc(-c3cccc(F)c3)sc2-c2ccc(N3CCS(=O)(=O)CC3)cc2)CC1 [Example 64, (1R,2R)-N-(1-cyanocyclopropyl)-2-(5-(4-(1,1-dioxidothiomorpho-lino)phenyl)-2-(3-fluorophenyl)thiazol-4-yl)cyclohexane-carboxamide]
14 | 1000 nM | 7 nM | N#CC1(NC(=O)[C@@H]2CCCC[C@H]2c2nc(-c3ncc(F)cc3F)sc2-c2ccc(N3CCS(=O)(=O)CC3)cc2)CC1 [Example 65, (1R,2R)-N-(1-cyanocyclopropyl)-2-(2-(3,5-difluoropyridin-2-yl)-5-(4-(1,1-dioxidothiomorpho-lino)phenyl)thiazol-4-yl)cyclohexane-carboxamide]
15 | 2320 nM | 2.3 nM | N#CC1(NC(=O)[C@@H]2CCCC[C@H]2c2nc(-c3cnc(N)nc3)sc2-c2ccc(N3CCS(=O)(=O)CC3)cc2)CC1 [Example 71, (1R,2R)-2-(2-(2-aminopyrimidin-5-yl)-5-(4-(1,1-dioxidothiomorpho-lino)phenyl)thiazol-4-yl)-N-(1-cyanocyclopropyl) cyclohexanecarbox-amide]
16 | 2150 nM | 2.3 nM | N#CC1(NC(=O)[C@@H]2CCCC[C@H]2c2nc(-c3cccnc3)sc2-c2ccc(N3CCS(=O)(=O)C4(CC4)C3)cc2)CC1 [Example 72, (1R,2R)-N-(1-cyanocyclopropyl)-2-(5-(4-(4,4-dioxido-4-thia-7-azaspiro[2.5]octan-7-yl)phenyl)-2-(pyridin-3-yl)thiazol-4-yl)cyclohexane-carboxamide]
17 | 1370 nM | 1.9 nM | N#CC1(NC(=O)[C@@H]2CCCC[C@H]2c2nc(-c3cncc(F)c3)sc2-c2ccc(N3CCS(=O)(=O)C4(CC4)C3)cc2)CC1 [Example 74, (1R,2R)-N-(1-cyanocyclopropyl)-2-(5-(4-(4,4-dioxido-4-thia-7-azaspiro[2.5]octan-7-yl)phenyl)-2-(5-fluoropyridin-3-yl)thiazol-4-yl)cyclohexane-carboxamide]
18 | 867 nM | 1.5 nM | CS(=O)(=O)C1CN(c2ccc(-c3sc(-c4cncc(F)c4)nc3[C@@H]3CCCC[C@H]3C(=O)NC3(C#N)CC3)cc2)C1 [Example 75, (1R,2R)-N-(1-cyanocyclopropyl)-2-(2-(5-fluoropyridin-3-yl)-5-(4-(3-(methylsulfonyl)azetidin-1-yl)phenyl)thiazol-4-yl)cyclohexane-carboxamide]
19 | 1000 nM | 1.8 nM | N#CC1(NC(=O)[C@@H]2CCCC[C@H]2c2nc(-c3cncc(Cl)c3)sc2-c2ccc(N3CCS(=O)(=O)C4(CC4)C3)cc2)CC1 [Example 76, (1R,2R)-2-(2-(5-chloropyridin-3-yl)-5-(4-(4,4-dioxido-4-thia-7-azaspiro[2.5]octan-7-yl)phenyl)thiazol-4-yl)-N-(1-cyanocyclopropyl) cyclohexanecarbox-amide]
20 | 1870 nM | 1.6 nM | Cc1ncc(-c2nc([C@@H]3CCCC[C@H]3C(=O)NC3(C#N)CC3)c(-c3ccc(N4CCS(=O)(=O)CC4)cc3)s2)cn1 [Example 77, (1R,2R)-N-(1-cyanocyclopropyl)-2-(5-(4-(1,1-dioxidothiomorpho-lino)phenyl)-2-(2-methylpyrimidin-5-yl)thiazol-4-yl)cyclohexane-carboxamide]
21 | ≥ 10000 nM | 31.6 nM | N#CC1(NC(=O)[C@@H]2CCCC[C@H]2c2nc(-c3ncc(F)cn3)sc2-c2ccc(N3CCS(=O)(=O)CC3)cc2)CC1 [Example 80, (1R,2R)-N-(1-cyanocyclopropyl)-2-(5-(4-(1,1-dioxidothiomorpho-lino)phenyl)-2-(5-fluoropyrimidin-2-yl)thiazol-4-yl)cyclohexane-carboxamide]
22 | 1090 nM | 2.1 nM | CS(=O)(=O)C1CN(c2ccc(-c3sc(-c4cncc(Cl)c4)nc3[C@@H]3CCCC[C@H]3C(=O)NC3(C#N)CC3)cc2)C1 [Example 85, (1R,2R)-2-(2-(5-chloropyridin-3-yl)-5-(4-(3-(methylsulfonyl)azetidin-1-yl)phenyl)thiazol-4-yl)-N-(1-cyanocyclopropyl) cyclohexanecarbox-amide]
